Broadly, the Ki is a measure of affinity in units of concentration, obtained from inhibition or displacement.

Data on 22 molecules can be found in patent US20100016366A1, “Novel Compounds Active as Muscarinic Receptor Antagonists” (priority 2008, published 2010).

SMILES strings stand for the structures.

Assay [1] has as its target T1, human muscarinic M3 receptor (Homo sapiens, UniProt P20309).
T1 construct: expressed in transfected cells; host or cells: CHO (CHO-K1) cells
The assay is described as follows: Cell based potency assessment, hM3 β-lactamase assay (CHO cell β-lactamase). As to conditions: CHO cells recombinantly expressing human M3, NFAT-β-lactamase reporter; inhibition of 80 nM carbamyl choline signal, 4 h; IC50 converted by Cheng-Prusoff. On the procedure:
Cell BASED POTENCY ASSESSMENT at the Human Recombinant M3 Muscarinic Receptor
M3 potency was determined in CHO-K1 cells transfected with the NFAT-Betalactamase gene. CHO (Chinese Hamster Ovary) cells recombinantly expressing the human muscarinic M3 receptor were transfected with the NFAT_β-Lac_Zeo plasmid. Cells were grown in DMEM with Glutamax-1, supplemented with 25 mM HEPES (Life Technologies 32430-027), containing 10% FCS (Foetal Calf Serum; Sigma F-7524), […] Sodium pyruvate (Sigma S-8636), NEAA (non-Essential Amino Acids; Invitrogen 11140-035) and 200 μg/ml Zeocin (Invitrogen R250-01).
hM3 β-Lactamase Assay Protocol
Cells were harvested for assay when they reached 80-90% confluency using enzyme free cell Dissociation Solution (Life technologies 13151-014) incubated with the cells for 5 min at 37° C. in an atmosphere containing 5% CO2. Detached cells were collected in warmed growth media and centrifuged at 2000 rpm for 10 min, washed in PBS (Phosphate Buffered Saline; Life Technologies 14190-094) and centrifuged again as just described. The cells were re-suspended at 2×10^5 cells/ml in growth medium (composition as described above). 20 μl of this cell suspension was added to each well of a 384 well black clear bottomed plate (Greiner Bio One 781091-PFI). The assay buffer used was PBS supplemented with 0.05% Pluronic F-127 (Sigma 9003-11-6) and 2.5% DMSO. Muscarinic M3 receptor signalling was stimulated using 80 nM carbamyl choline (Aldrich N240-9) incubated with the cells for 4 h at 37° C./5% CO2 and monitored at the end of the incubation period using a Tecan SpectraFluor+plate reader (λ−excitation 405 nm, emission 450 nm and 503 nm). M3 receptor antagonists under test were added to the assay at the beginning of the 4 h incubation period and compound activity measured as the concentration dependent inhibition of the carbamyl choline induced signal. Inhibition curves were plotted and IC50 values generated using a 4-parameter sigmoid fit and converted to Ki values using the Cheng-Prusoff correction and the KD value for carbamyl choline in the assay.

The target in assay [2] is T1, human muscarinic M3 receptor. The assay is described as follows: hM3 competition binding assay (3H-NMS, CHO cell membranes). As to conditions: CHO cell membranes expressing human M3; 3H-NMS at 5×KD, 24 hr at RT; IC50 corrected by Cheng-Prussoff. On the procedure:
Binding Affinity Assessment at the Human Recombinant M3 Muscarinic Receptor
Cell Pellets from CHO (Chinese Hamster Ovary) cells recombinantly expressing the human muscarinic M3 receptor were homogenised in 20 mM HEPES (pH7.4) and centrifuged at 48000×g for 20 min at 4° C. The pellet was re-suspended in buffer and the homogenisation and centrifugation steps repeated. The resulting pellet was re-suspended in 1 ml buffer per 1 ml original packed cell volume and the homogenisation step repeated. Protein estimation was carried out on the suspension and 1 ml aliquots of ˜1 mg/ml frozen at −80° C.
hM3 Competition Binding Assay Protocol
Membranes (5 µg/well) were incubated with ^3H-NMS (at a concentration 5×KD) plus/minus test compound for 24 hr at RT (room temperature) in a 1 ml polystyrene 96-well deep well block. The final assay volume was 200 µl, comprising of: 20 µl plus/minus test compound; 20 µl ^3H-NMS (Perkin Elmer NEN 636) and 160 µl membrane solution. Total Binding was defined with 0.1% DMSO; Non-Specific Binding was defined with 1 µM Atropine. Assay buffer was 20 mM Hepes (pH 7.4).
Once all assay components were added, plates were covered and incubated at room temperature for 24 hrs with shaking. The assay was terminated by rapidly filtering through GF/B Unifilter plates pre-soaked with 0.5% polyethylenimine, using a Packard filtermate harvester, the filter plate was then washed with 3×1 ml 4° C. assay buffer. The filter plates were dried at 45° C. for 1 hour. The bottoms of the filter plates were sealed and 50 µl/well of Microscint ‘0’ added, the top of the plates were sealed with a Topseal. Following 90 mins, the plates were read on an NXT Topcount (1 minute read time per well).
The resulting data was expressed as a percentage of the specific binding (Specific binding=Total binding−Non-Specific Binding). % specific binding versus test compound concentration was plotted to determine an IC50 from a sigmoid curve using an in-house data analysis programme. IC50 values corrected to Ki values by applying the Cheng-Prussoff equation: […]
where IC50 is the concentration of unlabelled drug which inhibits by 50% the specific radioligand binding. [L] is the free radioligand concentrations and KD and Ki are the equilibrium dissociation constants of the radioligand and unlabelled drug respectively.

T1 sequence (P20309 whole entry): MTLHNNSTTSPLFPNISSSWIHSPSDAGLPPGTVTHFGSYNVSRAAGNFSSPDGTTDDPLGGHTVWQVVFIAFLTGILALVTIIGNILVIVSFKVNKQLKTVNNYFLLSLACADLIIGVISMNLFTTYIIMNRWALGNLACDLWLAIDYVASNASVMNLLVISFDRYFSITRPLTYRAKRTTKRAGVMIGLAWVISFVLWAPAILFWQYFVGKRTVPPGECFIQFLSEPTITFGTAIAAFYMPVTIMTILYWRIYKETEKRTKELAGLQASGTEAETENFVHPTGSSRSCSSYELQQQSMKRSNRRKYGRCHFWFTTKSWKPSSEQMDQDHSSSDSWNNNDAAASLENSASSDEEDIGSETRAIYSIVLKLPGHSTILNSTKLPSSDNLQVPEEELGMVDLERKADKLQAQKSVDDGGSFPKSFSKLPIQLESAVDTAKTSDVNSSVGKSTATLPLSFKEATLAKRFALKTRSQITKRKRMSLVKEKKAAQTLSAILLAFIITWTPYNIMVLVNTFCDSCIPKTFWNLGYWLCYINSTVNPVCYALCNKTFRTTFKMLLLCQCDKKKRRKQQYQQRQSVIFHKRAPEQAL

With `O=C(Nc1ccccc1-c1ccccc1)OC1CCN(CCCCCCCCCNC(=O)c2ccc(F)c(O)c2)CC1` [Example 7, Biphenyl-2-yl-carbamic acid 1-[9-(4-fluoro-3-hydroxy-benzoylamino)-nonyl]-piperidin-4-yl ester], the inhibition constant Ki in assay [1] is 1.36 nM; in assay [2], 0.997 nM.
For `O=C(Nc1ccccc1-c1ccccc1)OC1CCN(CCCCCCCCCNCc2ccc(Cl)c(O)c2Cl)CC1` [Example 37, Biphenyl-2-yl-carbamic acid 1-[9-(2,4-dichloro-3-hydroxy-benzylamino)-nonyl]-piperidin-4-yl ester], the Ki turned out to be 1.12 nM in assay [1] and 0.342 nM in assay [2].
For `O=C(Cc1ccc(O)c(F)c1)NCCCCCCCCCN1CCC(OC(=O)Nc2ccccc2-c2ccccc2)CC1` [Example 10, Biphenyl-2-yl-carbamic acid 1-{9-[2-(3-fluoro-4-hydroxy-phenyl)-acetylamino]-nonyl}-piperidin-4-yl ester], the Ki in assay [1] came to 0.803 nM; in assay [2] it was 1.07 nM.
In the case of `O=C(Nc1ccccc1-c1ccccc1)OC1CCN(CCCCCCCCCNC(=O)c2ccc(O)c(Cl)c2)CC1` [Example 1, Biphenyl-2-yl-carbamic acid 1-[9-(3-chloro-4-hydroxy-benzoylamino)-nonyl]-piperidin-4-yl ester], the Ki in assay [1] was 0.0697 nM; in assay [2], 1.6 nM.
Regarding `O=C(Nc1ccccc1-c1ccccc1)OC1CCN(CCCCCCCCCNCc2cc(F)cc(F)c2O)CC1` [Example 29, Biphenyl-2-yl-carbamic acid 1-[9-(2-hydroxy-3,5-difluoro-benzylamino)-nonyl]-piperidin-4-yl ester], the figures for the Ki in assay [1] and in assay [2] were 0.816 nM and 1.35 nM, respectively.
On to `O=C(Nc1ccccc1-c1ccccc1)OC1CCN(CCCCCCCCCNC(=O)c2cc(F)ccc2O)CC1` [Example 9, Biphenyl-2-yl-carbamic acid 1-[9-(5-fluoro-2-hydroxy-benzoylamino)-nonyl]-piperidin-4-yl ester], for which the Ki in assay [1] came out at 8.81 nM.
In the case of `O=C(Nc1ccccc1-c1ccccc1)OC1CCN(CCCCCCCCCNC(=O)c2ccc(O)c(F)c2)CC1` [Example 6, Biphenyl-2-yl-carbamic acid 1-[9-(3-fluoro-4-hydroxy-benzoylamino)-nonyl]-piperidin-4-yl ester], the inhibitory constant (Ki) turned out to be 0.222 nM in assay [1] and 0.778 nM in assay [2].
In the case of `O=C(Nc1ccccc1-c1ccccc1)OC1CCN(CCCCCCCCCNC(=O)c2ccc(O)cc2Cl)CC1` [Example 21, Biphenyl-2-yl-carbamic acid 1-[9-(2-chloro-4-hydroxy-benzoylamino)-nonyl]-piperidin-4-yl ester], the values for the Ki in assay [1] and in assay [2] were 0.682 nM and 1.26 nM, respectively.
Regarding `O=C(Nc1ccccc1-c1ccccc1)OC1CCN(CCCCCCCCCNCc2ccc(O)c(Cl)c2)CC1` [Example 34, Biphenyl-2-yl-carbamic acid 1-[9-(3-chloro-4-hydroxy-benzylamino)-nonyl]-piperidin-4-yl ester], the Ki in assay [1] stood at 0.96 nM; in assay [2], 0.787 nM.
As to `O=C(Nc1ccccc1-c1ccccc1)OC1CCN(CCCCCCCCCNC(=O)c2ccc(F)c(F)c2O)CC1` [Example 12, Biphenyl-2-yl-carbamic acid 1-[9-(3,4-difluoro-2-hydroxy-benzoylamino)-nonyl]-piperidin-4-yl ester], the Ki in assay [1] is 7.32 nM.
Consider `O=C(Nc1ccccc1-c1ccccc1)OC1CCN(CCCCCCCCCNC(=O)c2ccc(F)cc2O)CC1` [Example 26, Biphenyl-2-yl-carbamic acid 1-[9-(2-hydroxy-4-fluoro-benzoylamino)-nonyl]-piperidin-4-yl ester], for which the Ki in assay [1] amounted to 4.51 nM.
`CN(CCCCCCCCCN1CCC(OC(=O)Nc2ccccc2-c2ccccc2)CC1)Cc1cc(F)c(O)c(F)c1` [Example 53, Biphenyl-2-yl-carbamic acid 1-{9-[(3,5-difluoro-4-hydroxy-benzyl)-methyl-amino]-nonyl}-piperidin-4-yl ester] displayed a Ki in assay [2] of 0.345 nM.
As for `O=C(Nc1ccccc1-c1ccccc1)OC1CCN(CCCCCCCCCNC(=O)c2ccc(Cl)cc2O)CC1` [Example 14, Biphenyl-2-yl-carbamic acid 1-[9-(4-chloro-2-hydroxy-benzoylamino)-nonyl]-piperidin-4-yl ester], in assay [1], the Ki stood at 13.9 nM.
The molecule `CN(CCCCCCCCCN1CCC(OC(=O)Nc2ccccc2-c2ccccc2)CC1)Cc1cccc(F)c1O` [Example 40, Biphenyl-2-yl-carbamic acid 1-{9-[(3-fluoro-2-hydroxy-benzyl)-methyl-amino]-nonyl}-piperidin-4-yl ester] showed a Ki in assay [2] of 0.638 nM.
For the molecule `O=C(Nc1ccccc1-c1ccccc1)OC1CCN(CCCCCCCCCNC(=O)c2cc(Cl)cc(Cl)c2O)CC1` [Example 13, Biphenyl-2-yl-carbamic acid 1-[9-(3,5-dichloro-2-hydroxy-benzoylamino)-nonyl]-piperidin-4-yl ester], the Ki in assay [1] came to 18 nM.
The molecule `CN(CCCCCCCCCN1CCC(OC(=O)Nc2ccccc2-c2ccccc2)CC1)C(=O)c1cc(F)ccc1O` [Example 67, Biphenyl-2-yl-carbamic acid 1-{9-[(5-fluoro-2-hydroxy-benzoyl)-methyl-amino]-nonyl}-piperidin-4-yl ester] displayed an inhibition constant Ki in assay [2] of 0.828 nM.
Consider `CN(CCCCCCCCCN1CCC(OC(=O)Nc2ccccc2-c2ccccc2)CC1)Cc1cc(F)cc(Cl)c1O` [Example 49, Biphenyl-2-yl-carbamic acid 1-{9-[(3-chloro-5-fluoro-2-hydroxy-benzyl)-methyl-amino]-nonyl}-piperidin-4-yl ester], for which the Ki in assay [2] is 0.285 nM.
Take `CN(CCCCCCCCCN1CCC(OC(=O)Nc2ccccc2-c2ccccc2)CC1)C(=O)c1ccc(Cl)c(O)c1` [Example 62, Biphenyl-2-yl-carbamic acid 1-{9-[(4-chloro-3-hydroxy-benzoyl)-methyl-amino]-nonyl}-piperidin-4-yl ester]: the Ki in assay [2] stood at 1.21 nM.
In turn, `CN(CCCCCCCCCN1CCC(OC(=O)Nc2ccccc2-c2ccccc2)CC1)Cc1cccc(O)c1Cl` [Example 48, Biphenyl-2-yl-carbamic acid 1-{9-[(2-chloro-3-hydroxy-benzyl)-methyl-amino]-nonyl}-piperidin-4-yl ester] displayed a Ki in assay [2] of 0.182 nM.
With `CN(CCCCCCCCCN1CCC(OC(=O)Nc2ccccc2-c2ccccc2)CC1)C(=O)c1ccc(O)cc1Cl` [Example 65, Biphenyl-2-yl-carbamic acid 1-{9-[(2-chloro-4-hydroxy-benzoyl)-methyl-amino]-nonyl}-piperidin-4-yl ester], affinity in assay [2] was put at a Ki of 0.628 nM.
`O=C(Nc1ccccc1-c1ccccc1)OC1CCN(CCCCCCCCCNC(=O)c2cc(Cl)ccc2O)CC1` [Example 24, Biphenyl-2-yl-carbamic acid 1-[9-(2-hydroxy-5-chloro-benzoylamino)-nonyl]-piperidin-4-yl ester]: the Ki in assay [1] worked out at 17 nM.
For the molecule `CN(CCCCCCCCCN1CCC(OC(=O)Nc2ccccc2-c2ccccc2)CC1)C(=O)c1ccc(F)cc1O` [Example 61, Biphenyl-2-yl-carbamic acid 1-{9-[(4-fluoro-2-hydroxy-benzoyl)-methyl-amino]-nonyl}-piperidin-4-yl ester], the Ki in assay [2] was found to be 0.778 nM.
